Type in all cases: in vivo, mouse
Assay [1] concerns immune tolerant GAA-KO mice. Briefly: Histopathology of brain, glycogen staining. To be noted: cerebellum; in comparison with ERT alone. How it is done:
Histopathology was performed to examine brain involvement, and glycogen accumulations were detected in the cerebellum with ERT alone. Albuterol and clenbuterol each reduced the glycogen staining in the cerebellum, in comparison with ERT alone.

For assay [2], the system named is immune tolerant GAA-KO mice. The assay is described as follows: Wire hang testing, ERT plus β2 agonist. To be noted: clenbuterol plus ERT v. ERT alone. The procedure:
GAA-KO mice were administered four weekly doses of rhGAA (20 mg/kg), and treated with medium dose clenbuterol (n=7), albuterol (n=4) or untreated (n=6 or 3). […] Mean+/−standard deviation are shown. P values indicate statistically significant differences (lines).
Two β2 agonists were evaluated in combination with ERT, clenbuterol and albuterol. The dose of clenbuterol was reduced 5-fold from the concentration used in Example 4, to 6 mg/l in drinking water, while albuterol was evaluated at the higher dose (30 mg/l in drinking water). Groups of 3 month-old immune tolerant GAA-KO mice (Raben et al., Human Mol. Genet., 2001, 10:2039-2047) were treated with four weekly doses of rhGAA (20 mg/kg body weight), with or without concurrent β2 agonist treatment.
Mice were sacrificed 7 days after the last injection. Selected tissues were collected for GAA enzyme activity and glycogen content analyses. […] GAA activity and glycogen content analyses, Rotarod testing, and Western blot detection of CI-MPR was performed essentially as described (Koeberl et al., Mol. Genet. Metab., 2011, 103:107-112. Wire hang testing was performed with a 0.5 cm mesh hardware cloth fixed to an 8 by 10 inch frame. Mice were placed on the wire mesh, which was slowly inverted 6 inches over a cage containing paper bedding. The latency, or time until the mouse fell into the cage, was recorded.

The subject of assay [3] is GAA-KO mice. The assay is described as follows: Rotarod testing, ERT (rhGAA) plus clenbuterol. The conditions noted are these: rhGAA 20 mg/kg weekly x4 plus clenbuterol v. ERT alone; male mice; p=0.04 at 1 week. How it is done: GAA-KO mice were administered four weekly doses of rhGAA (20 mg/kg), and treated with clenbuterol (n=5) or ERT alone (n=5). […] Mean+/−standard deviation are shown. Statistically significant differences indicated (*=p<0.05; **=p<0.01).
(§1) For in vivo analysis of AAV vectors, stocks were administered intravenously (via the retroorbital sinus) in 3 month-old and 15 month-old GAA-KO mice, and to 3 month-old tolerant GAA-KO and DKO mice. Clenbuterol (30 μg/ml) was administered to groups of 3 month-old vector-injected and mock-injected male GAA-KO mice in drinking water for 28 days. At the indicated time points post-injection, tissue samples were obtained and processed as described below. All animal procedures were done in accordance with Duke University Institutional Animal Care and Use Committee-approved guidelines. GAA activity and glycogen content were analyzed essentially as described (Sun et al., Mol. Ther., 2005, 11:889-898; Sun et al., Mol. Ther., 2005, 11: 57-65). Rotarod testing was performed essentially as described (Sun, B. D. et al. 2005). Western blotting of hGAA was performed essentially as described (Amalfitano et al., Proc. Natl. Acad. Sci. USA, 1999, 96: 8861-8866) using the hGAA monoclonal antibody (courtesy of Genzyme Corp., Framingham, Mass.) and the CI-MPR antibody (catalog number GTX28093; Gene Tex, Irvine, Calif.). […]

Assay [4] has as its system GAA-KO mice. The assay is described as follows: GAA activity in tissues, gene therapy plus clenbuterol. How it is done:
(§2) FIG. 5A-5B depicts enhanced efficacy from liver-targeted gene therapy plus clenbuterol treatment. The GAA-KO mice were injected with AAV-LSPhGAA (2×10^10 vector particles/mouse) or uninjected (5 per group). Vector-treated mice were treated with AAV-LSPhGAA and clenbuterol or with AAV-LSPhGAA alone. Untreated (mock) GAA-KO mice were used as controls. Mice were euthanized for tissue analysis 4 weeks after vector injection. […] Statistically significant differences indicated (*=p<0.05; **=p<0.01).
as §1, with “2005).” for “2005). Western blotting of hGAA was performed essentially as described (Amalfitano et al., Proc. Natl. Acad. Sci. USA, 1999, 96: 8861-8866) using the hGAA monoclonal antibody (courtesy of Genzyme Corp., Framingham, Mass.) and the CI-MPR antibody (catalog number GTX28093; Gene Tex, Irvine, Calif.).”

The subject of assay [5] is GAA-KO mice. The assay is described as follows: Glycogen content in tissues, gene therapy plus clenbuterol. To be noted: vector plus clenbuterol v. vector alone. How it is done:
as §2
For in vivo analysis of AAV vectors, stocks were administered intravenously (via the retroorbital sinus) in 3 month-old and 15 month-old GAA-KO mice, and to 3 month-old tolerant GAA-KO and DKO mice. Clenbuterol (30 μg/ml) was administered to groups of 3 month-old vector-injected and mock-injected male GAA-KO mice in drinking water for 28 days. At the indicated time points post-injection, tissue samples were obtained and processed as described below. All animal procedures were done in accordance with Duke University Institutional Animal Care and Use Committee-approved guidelines. GAA activity and glycogen content were analyzed essentially as described (Sun et al., Mol. Ther., 2005, 11:889-898; Sun et al., Mol. Ther., 2005, 11: 57-65). Rotarod testing was performed essentially as described (Sun, B. D. et al. 2005). Western blotting of hGAA was performed essentially as described (Amalfitano et al., Proc. Natl. Acad. Sci. USA, 1999, 96: 8861-8866) using the hGAA monoclonal antibody (courtesy of Genzyme Corp., Framingham, Mass.) and the CI-MPR antibody (catalog number GTX28093; Gene Tex, Irvine, Calif.).
Based upon the implication that CI-MPR expression was crucial to both uptake and intracellular processing of GAA in Pompe disease, levels of CI-MPR in GAA-KO mice were manipulated. A related but distinct strategy for addressing the apparently limiting role of CI-MPR expression in achieving efficacy with ERT in Pompe disease involved enhancement of rhGAA glycosylation (Raben et al., Mol. Genet. Metab., 2003, 80: 159-169; Raben et al., Transgenic Res., 2003, 12: 171-178; McVie-Wylie et al., Mol. Genet. Metab., 2008, 94: 448-455). […] The vector-transduced liver depot was enhanced by the addition of a drug, clenbuterol, which increases the expression of CI-MPR in muscle (Matsumoto et al., Arch. Oral Biol., 2006 51:603-611). The liver was transduced by administering AAV-LSPhGAA (2×10^10 vector particles) to groups of 3 month-old male GAA-KO mice, and clenbuterol (30 μg/ml) was administered to groups of 3 month-old vector-injected and mock-injected male GAA-KO mice in drinking water.

Take `CC(C)(C)NCC(O)c1cc(Cl)c(N)c(Cl)c1` (stereo not shown) [clenbuterol]: in assay [1], the “glycogen staining (histopathology)” value was “reduced”. Besides, in assay [2], the Wire hang latency entry is “increased significantly”. Besides, the Rotarod latency entry in the assay with GAA-KO mice [3] is on record as “increased Rotarod latency”. The GAA activity entry with GAA-KO mice [4] (heart, vector plus clenbuterol v. vector alone, p=0.03) is “significantly increased”; in the assay on GAA-KO mice [4] (skeletal muscles and the brain, clenbuterol administration with vector), “significantly increased”. Also, the Glycogen content entry in the assay with GAA-KO mice [5] (EDL, p=0.002) is reported as “reduced”; with GAA-KO mice [5] (cerebellum, p=0.03), “reduced”; in the assay on GAA-KO mice [5] (cerebrum, p<5×10^−5), “reduced”; with GAA-KO mice [5] (diaphragm, p=0.04), “reduced”; in the assay on GAA-KO mice [5] (soleus, p=0.0006), “reduced”.

These data come from US8679478B2, “Methods of lysosomal storage disease therapy” (Duke University, priority 2010, dated 2014).
